Key:
Alternaria solani = assay: Test C: tomato early blight, preventive spray on tomato seedlings, visual disease rating; settings: tomato early blight, 100 = 100% disease control; for Test C disease control rating: 0 = no disease control relative to controls
Botrytis cinerea = assay: Test B: tomato Botrytis, preventive spray on tomato seedlings, visual disease rating; settings: tomato Botrytis, 100 = 100% disease control; for Test B disease control rating: 0 = no disease control relative to controls
[1] = test system: Erysiphe graminis f sp. tritici; assay: Test J: wheat powdery mildew, preventive spray on wheat seedlings, visual disease rating; settings: wheat powdery mildew, 100 = 100% disease control; for Test J disease control rating: sprayed the day before inoculation, 0 = no disease control relative to controls
Septoria nodorum = assay: Test F: Septoria glume blotch, preventive spray on wheat seedlings, visual disease rating; settings: 100 = 100% disease control; for Test F disease control rating: 0 = no disease control relative to controls
Septoria tritici = assay: Test G: wheat leaf blotch, preventive spray on wheat seedlings, visual disease rating; settings: wheat leaf blotch, 100 = 100% disease control; for Test G disease control rating: sprayed the day before inoculation, 0 = no disease control relative to controls
[2] = test system: Puccinia recondita f. sp. tritici; assay: Test H: wheat leaf rust, curative spray on inoculated wheat seedlings, visual disease rating; settings: wheat leaf rust, 100 = 100% disease control; for Test H disease control rating: sprayed after inoculation, 0 = no disease control relative to controls
[3] = test system: Puccinia recondita f. sp. tritici; assay: Test I: wheat leaf rust, preventive spray on wheat seedlings, visual disease rating; settings: wheat leaf rust, 100 = 100% disease control; for Test I disease control rating: sprayed the day before inoculation, 0 = no disease control relative to controls
[4] = 0 = no control relative to controls
[5] = Septoria glume blotch, 0 = no control relative to controls
[6] = curative, 0 = no control relative to controls
[7] = preventive, 0 = no control relative to controls
[8] = preventive spray, 0 = no control
[9] = Septoria glume blotch on wheat, preventive spray, 0 = no control

| SMILES | Test C rating (% disease control) (Alternaria solani; [4]) | Test B rating (% disease control) (Botrytis cinerea; [4]) | Test J rating (% disease control) [1, 4] | Test F rating (% disease control) (Septoria nodorum; [5]) | Test G rating (% disease control) (Septoria tritici; [4]) | Test H rating (% disease control) [2, 6] | Test I rating (% disease control) [3, 7] | other results |
| --- | --- | --- | --- | --- | --- | --- | --- | --- |
| Cc1nn(C)c(Nc2c(F)cc(F)cc2F)c1-c1ccccc1F [compound 182] | 99% | 97% | 99% | 87% | 100% | 0% | 95% | – |
| COc1cc(F)c(-c2c(C)nn(C)c2Oc2ccc(Cl)c(C)c2)c(F)c1 [compound 185] | 0% | 0% | 98% | 0% | 100% | 0% | 74% | – |
| COc1ccc(Nc2c(-c3c(F)cccc3F)c(C)nn2C)c(Cl)c1 [compound 201] | 97% | 99% | 99% | 20% | 100% | 18% | 97% | – |
| Cc1nn(C)c(Nc2cc(C#N)ccc2Cl)c1-c1ccc(F)cc1F [compound 291] | 0% | 99% | 43% | 0% | 98% | 0% | 85% | – |
| Cc1nn(C)c(Nc2c(F)cc(C#N)cc2F)c1-c1c(F)cccc1Cl [compound 192] | 100% | 97% | 99% | 73% | 100% | 0% | 99% | – |
| Cc1nn(C)c(Nc2c(F)cccc2F)c1-c1ccc(Cl)cc1Cl [compound 353] | – | – | – | – | – | – | – | Test C disease control rating (Alternaria solani): 17%; Test B disease control rating (Botrytis cinerea): 97%; Test J disease control rating [1]: 99%; Test F disease control rating (Septoria nodorum; Septoria glume blotch on wheat): 0%; Test G disease control rating (Septoria tritici): 99%; Test H disease control rating [2]: 3%; Test I disease control rating [3]: 99% |
| Cc1nn(C)c(Nc2cncnc2)c1-c1ccc(F)cc1Cl [compound 270] | 86% | 92% | 81% | 0% | 91% | 8% | 0% | – |
| Cc1nn(C)c(Nc2c(F)cc(C#N)cc2F)c1-c1c(F)cc(F)cc1F [compound 92] | – | – | – | – | – | – | – | Test C rating (% disease control) (Alternaria solani; [8]): 100%; Test B rating (% disease control) (Botrytis cinerea; [8]): 100%; Test J rating (% disease control) [1, 8]: 100%; Test F rating (% disease control) (Septoria nodorum; [9]): 99%; Test G rating (% disease control) (Septoria tritici; [8]): 100%; Test H rating (% disease control) ([2]; curative spray, 0 = no control): 41%; Test I rating (% disease control) [3, 8]: 99% |
| COc1ccc(-c2c(C)nn(C)c2Oc2ccc(C#N)cc2F)c(Cl)c1 [compound 310] | – | – | – | – | – | – | – | Test C disease control rating (Alternaria solani): 99%; Test B disease control rating (Botrytis cinerea): 100%; Test J disease control rating [1]: 96%; Test F disease control rating (Septoria nodorum; Septoria glume blotch on wheat): 99%; Test G disease control rating (Septoria tritici): 100%; Test H disease control rating [2]: 0%; Test I disease control rating [3]: 99% |
| Cc1nn(C)c(Oc2ccc(C#N)cc2F)c1-c1c(F)cc(F)cc1F [compound 96] | – | – | – | – | – | – | – | Test C rating (% disease control) (Alternaria solani; [8]): 99%; Test B rating (% disease control) (Botrytis cinerea; [8]): 99%; Test J rating (% disease control) [1, 8]: 100%; Test F rating (% disease control) (Septoria nodorum; [9]): 99%; Test G rating (% disease control) (Septoria tritici; [8]): 100%; Test H rating (% disease control) ([2]; curative spray, 0 = no control): 9%; Test I rating (% disease control) [3, 8]: 99% |
| COc1ccc(-c2c(C)nn(C)c2Oc2ccc(C#N)cc2Cl)c(Cl)c1 [compound 311] | – | – | – | – | – | – | – | Test C disease control rating (Alternaria solani): 0%; Test B disease control rating (Botrytis cinerea): 100%; Test J disease control rating [1]: 91%; Test F disease control rating (Septoria nodorum; Septoria glume blotch on wheat): 60%; Test G disease control rating (Septoria tritici): 100%; Test H disease control rating [2]: 0%; Test I disease control rating [3]: 99% |
| Cc1nn(C)c(Nc2c(F)cc(F)cc2F)c1-c1cccc(F)c1F [compound 203] | 0% | 99% | 100% | 0% | 98% | 0% | 96% | – |
| Cc1nn(C)c(Oc2ccc([N+](=O)[O-])cc2F)c1-c1ccc(F)cc1Cl [compound 20] | – | – | – | – | – | – | – | Test C rating (% disease control) (Alternaria solani; [8]): 99%; Test B rating (% disease control) (Botrytis cinerea; [8]): 100%; Test J rating (% disease control) [1, 8]: 99%; Test F rating (% disease control) (Septoria nodorum; [9]): 100%; Test G rating (% disease control) (Septoria tritici; [8]): 100%; Test H rating (% disease control) ([2]; curative spray, 0 = no control): 79%; Test I rating (% disease control) [3, 8]: 100% |
| C=CCN(c1c(F)cc(OC)cc1F)c1c(-c2ccc(F)cc2Cl)c(C)nn1C [compound 159] | 0% | 99% | 100% | 0% | 100% | 74% | 99% | – |
| Cc1nn(C)c(Oc2c(F)cc(C#N)cc2F)c1-c1cccc(F)c1 [compound 43] | – | – | – | – | – | – | – | Test C rating (% disease control) (Alternaria solani; [8]): 0%; Test B rating (% disease control) (Botrytis cinerea; [8]): 76%; Test J rating (% disease control) [1, 8]: 99%; Test F rating (% disease control) (Septoria nodorum; [9]): 0%; Test G rating (% disease control) (Septoria tritici; [8]): 97%; Test H rating (% disease control) ([2]; curative spray, 0 = no control): 66%; Test I rating (% disease control) [3, 8]: 82% |
| COc1cc(F)c(-c2c(C)nn(C)c2Oc2c(F)cc(C#N)cc2F)c(F)c1 [compound 140] | – | – | – | – | – | – | – | Test C rating (% disease control) (Alternaria solani; [8]): 94%; Test B rating (% disease control) (Botrytis cinerea; [8]): 99%; Test J rating (% disease control) [1, 8]: 97%; Test F rating (% disease control) (Septoria nodorum; [9]): 87%; Test G rating (% disease control) (Septoria tritici; [8]): 99%; Test H rating (% disease control) ([2]; curative spray, 0 = no control): 0%; Test I rating (% disease control) [3, 8]: 96% |
| Cc1nn(C)c(Nc2ccc(Cl)cc2Cl)c1-c1c(F)cccc1F [compound 179] | 99% | 100% | 100% | 73% | 95% | 0% | 93% | – |
| COc1cc(F)c(Nc2c(-c3c(F)cccc3F)c(C)nn2C)c(F)c1 [compound 257] | 99% | 100% | 98% | 0% | 100% | 0% | 97% | – |
| Cc1nn(C)c(Nc2ncc(Cl)cc2Cl)c1-c1c(F)cccc1Cl [compound 252] | 97% | 100% | 100% | 0% | 100% | 0% | 100% | – |
| Cc1nn(C)c(Nc2cc([N+](=O)[O-])ccc2F)c1-c1ccc(F)cc1Cl [compound 345] | – | – | – | – | – | – | – | Test C disease control rating (Alternaria solani): 0%; Test B disease control rating (Botrytis cinerea): 0%; Test J disease control rating [1]: 0%; Test F disease control rating (Septoria nodorum; Septoria glume blotch on wheat): 0%; Test G disease control rating (Septoria tritici): 67%; Test H disease control rating [2]: 0%; Test I disease control rating [3]: 9% |
| COc1ccc(F)c(-c2c(C)nn(C)c2Oc2c(F)cc(C#N)cc2F)c1 [compound 278] | 0% | 99% | 100% | 0% | 99% | 0% | 82% | – |
| COc1ccc(Nc2c(-c3c(F)cccc3F)c(C)nn2C)c(F)c1 [compound 180] | 99% | 100% | 100% | 0% | 98% | 0% | 68% | – |
| COc1cc(Oc2c(-c3c(F)cc(F)cc3F)c(C)nn2C)ccc1[N+](=O)[O-] [compound 151] | 9% | 99% | 64% | 0% | 96% | 0% | 54% | – |
